Assay: Equilibrium aqueous solubility
Assay type: physicochemical
Conditions: physiologically relevant pH's

| SMILES | solubility in water |
| --- | --- |
| COc1cc2c(N3CCN(C(=O)Nc4ccc(OC(C)C)cc4)CC3)ncnc2cc1OCCCN1CCCCC1.C[C@H](O)C(=O)O [Form 1, 4-[6-methoxy-7-(3-piperidin-1-yl-propoxy)quinazolin-4-yl]piperazine-1-carboxylic acid(4-isopropoxyphenyl)-amide (L)-lactate (I) Form 1] | greater than 450 mg/mL |
| COc1cc2c(N3CCN(C(=O)Nc4ccc(OC(C)C)cc4)CC3)ncnc2cc1OCCCN1CCCCC1.C[C@H](O)C(=O)O [Form 4, 4-[6-methoxy-7-(3-piperidin-1-yl-propoxy)quinazolin-4-yl]piperazine-1-carboxylic acid(4-isopropoxyphenyl)-amide (L)-lactate (I) Form 4] | greater than 325 mg/mL |
